Laboratory results published in publication doi:10.1101/2023.10.21.563410v1 (biorxiv, 2023).

Legend:
OATP1B1 [1] = biological target: T1, OATP1B1 (Homo sapiens, UniProt Q9Y6L6); assay: fluorimetric uptake of fluorescein-methotrexate; format: cell-based; conditions: racemic compound
T1 sequence (Q9Y6L6 1-691): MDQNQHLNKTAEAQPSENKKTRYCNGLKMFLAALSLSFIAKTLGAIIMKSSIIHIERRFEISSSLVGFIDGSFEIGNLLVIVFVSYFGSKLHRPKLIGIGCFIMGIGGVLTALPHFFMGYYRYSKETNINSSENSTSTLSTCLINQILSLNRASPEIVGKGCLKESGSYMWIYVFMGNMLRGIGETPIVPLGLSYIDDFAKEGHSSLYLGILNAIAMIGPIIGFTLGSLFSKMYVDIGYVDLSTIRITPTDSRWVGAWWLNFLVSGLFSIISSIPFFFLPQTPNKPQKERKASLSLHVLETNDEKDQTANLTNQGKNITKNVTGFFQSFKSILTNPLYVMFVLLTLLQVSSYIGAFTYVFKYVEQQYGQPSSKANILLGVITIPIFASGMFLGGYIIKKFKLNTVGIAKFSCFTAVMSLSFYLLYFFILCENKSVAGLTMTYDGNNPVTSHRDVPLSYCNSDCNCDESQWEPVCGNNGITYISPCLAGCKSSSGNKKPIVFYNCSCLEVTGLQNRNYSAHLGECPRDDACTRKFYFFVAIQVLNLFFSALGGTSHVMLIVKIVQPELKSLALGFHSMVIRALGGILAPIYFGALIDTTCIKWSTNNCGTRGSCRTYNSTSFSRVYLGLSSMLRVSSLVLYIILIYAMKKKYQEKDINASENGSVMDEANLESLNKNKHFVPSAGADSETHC

OATP1B3 [2] = biological target: T2, OATP1B3 (Homo sapiens, UniProt Q9NPD5); assay: fluorimetric uptake of fluorescein-methotrexate; format: cell-based; conditions: racemic compound
T2 sequence (Q9NPD5 1-702): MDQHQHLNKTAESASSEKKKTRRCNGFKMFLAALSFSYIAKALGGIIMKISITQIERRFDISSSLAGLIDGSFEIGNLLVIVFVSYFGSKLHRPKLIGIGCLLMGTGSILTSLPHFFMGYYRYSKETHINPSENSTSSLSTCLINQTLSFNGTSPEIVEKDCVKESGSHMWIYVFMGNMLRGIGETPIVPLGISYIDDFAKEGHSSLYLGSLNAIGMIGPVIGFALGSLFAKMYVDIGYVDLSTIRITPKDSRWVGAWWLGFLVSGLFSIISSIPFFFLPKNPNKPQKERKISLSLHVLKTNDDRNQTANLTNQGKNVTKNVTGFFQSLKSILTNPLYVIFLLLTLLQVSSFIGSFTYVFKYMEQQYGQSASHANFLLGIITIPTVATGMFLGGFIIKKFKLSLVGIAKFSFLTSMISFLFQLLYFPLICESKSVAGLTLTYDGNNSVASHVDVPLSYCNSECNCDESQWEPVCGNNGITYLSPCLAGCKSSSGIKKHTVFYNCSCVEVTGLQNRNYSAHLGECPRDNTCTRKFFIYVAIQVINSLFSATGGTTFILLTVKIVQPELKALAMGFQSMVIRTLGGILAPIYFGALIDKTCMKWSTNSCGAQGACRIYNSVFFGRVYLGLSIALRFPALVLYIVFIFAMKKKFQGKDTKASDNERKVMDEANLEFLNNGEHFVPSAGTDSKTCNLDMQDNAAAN

BSEP = BSEP (Homo sapiens, UniProt O95342); assay: uptake of 3H-taurocholic acid in membrane vesicles, scintillation counting; format: biochemical; conditions: read-out: % of control activity at 10 μM
OATP1B3 [3] = biological target: T2, OATP1B3; assay: fluorimetric uptake of fluorescein-methotrexate; format: cell-based
OATP1B1 [4] = biological target: T1, OATP1B1; assay: fluorimetric uptake of fluorescein-methotrexate; format: cell-based
hPXR = biological target: T3, hPXR (Homo sapiens, UniProt O75469); assay: luciferase reporter gene assay; format: cell-based
T3 sequence (O75469 1-434): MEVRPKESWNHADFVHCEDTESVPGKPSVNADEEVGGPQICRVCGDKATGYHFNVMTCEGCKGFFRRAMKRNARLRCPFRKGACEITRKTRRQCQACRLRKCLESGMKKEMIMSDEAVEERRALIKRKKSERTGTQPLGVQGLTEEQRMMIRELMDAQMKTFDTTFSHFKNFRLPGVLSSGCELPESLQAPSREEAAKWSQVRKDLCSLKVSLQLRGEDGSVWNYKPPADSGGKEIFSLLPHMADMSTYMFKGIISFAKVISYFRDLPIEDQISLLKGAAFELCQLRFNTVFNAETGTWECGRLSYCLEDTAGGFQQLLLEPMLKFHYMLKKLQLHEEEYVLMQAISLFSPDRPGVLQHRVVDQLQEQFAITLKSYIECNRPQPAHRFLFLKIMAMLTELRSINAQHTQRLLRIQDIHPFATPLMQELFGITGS

MRP2 = MRP2 (Homo sapiens, UniProt Q92887); assay: fluorimetric uptake of […]; format: cell-based
Sequence of MRP2 (Q92887 whole entry): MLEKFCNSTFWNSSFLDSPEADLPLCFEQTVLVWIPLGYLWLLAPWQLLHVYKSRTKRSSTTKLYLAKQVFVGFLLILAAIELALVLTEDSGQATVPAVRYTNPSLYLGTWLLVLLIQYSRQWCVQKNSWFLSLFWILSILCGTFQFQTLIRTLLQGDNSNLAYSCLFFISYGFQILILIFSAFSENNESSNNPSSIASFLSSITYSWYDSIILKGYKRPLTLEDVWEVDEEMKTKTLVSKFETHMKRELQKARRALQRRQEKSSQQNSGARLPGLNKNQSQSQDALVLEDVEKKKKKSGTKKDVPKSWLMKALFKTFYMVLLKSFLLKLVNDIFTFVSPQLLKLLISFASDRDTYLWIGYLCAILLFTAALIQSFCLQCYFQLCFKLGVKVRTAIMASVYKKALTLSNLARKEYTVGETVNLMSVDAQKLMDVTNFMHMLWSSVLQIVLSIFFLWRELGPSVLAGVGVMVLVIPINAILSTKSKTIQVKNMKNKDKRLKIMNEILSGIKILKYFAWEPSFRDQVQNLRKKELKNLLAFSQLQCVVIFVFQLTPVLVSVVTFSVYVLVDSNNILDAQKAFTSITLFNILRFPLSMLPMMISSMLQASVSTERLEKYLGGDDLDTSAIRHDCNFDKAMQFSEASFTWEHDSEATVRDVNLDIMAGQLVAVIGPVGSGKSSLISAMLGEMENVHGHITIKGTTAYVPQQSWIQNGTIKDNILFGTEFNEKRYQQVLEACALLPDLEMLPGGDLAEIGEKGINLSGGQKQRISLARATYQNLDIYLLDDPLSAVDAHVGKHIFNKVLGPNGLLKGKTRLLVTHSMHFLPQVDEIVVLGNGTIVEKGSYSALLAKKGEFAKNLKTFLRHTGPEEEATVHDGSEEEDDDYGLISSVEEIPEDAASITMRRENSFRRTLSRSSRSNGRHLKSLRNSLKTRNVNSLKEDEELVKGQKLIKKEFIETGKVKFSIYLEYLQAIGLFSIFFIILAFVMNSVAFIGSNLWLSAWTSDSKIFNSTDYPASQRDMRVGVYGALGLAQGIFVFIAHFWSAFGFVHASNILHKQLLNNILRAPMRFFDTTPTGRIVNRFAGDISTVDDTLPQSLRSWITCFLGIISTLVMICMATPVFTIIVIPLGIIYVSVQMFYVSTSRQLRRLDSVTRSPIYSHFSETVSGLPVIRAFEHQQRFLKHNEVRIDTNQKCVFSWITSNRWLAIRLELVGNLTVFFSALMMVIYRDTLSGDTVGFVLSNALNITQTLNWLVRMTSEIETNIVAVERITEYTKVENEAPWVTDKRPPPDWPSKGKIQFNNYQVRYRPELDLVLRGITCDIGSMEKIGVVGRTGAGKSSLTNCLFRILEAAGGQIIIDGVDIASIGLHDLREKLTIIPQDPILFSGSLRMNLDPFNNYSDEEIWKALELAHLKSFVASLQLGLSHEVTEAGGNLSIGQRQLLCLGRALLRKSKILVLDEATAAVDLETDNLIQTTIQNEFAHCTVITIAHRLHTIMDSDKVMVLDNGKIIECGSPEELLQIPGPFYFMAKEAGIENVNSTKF

Sequence of BSEP (O95342 whole entry): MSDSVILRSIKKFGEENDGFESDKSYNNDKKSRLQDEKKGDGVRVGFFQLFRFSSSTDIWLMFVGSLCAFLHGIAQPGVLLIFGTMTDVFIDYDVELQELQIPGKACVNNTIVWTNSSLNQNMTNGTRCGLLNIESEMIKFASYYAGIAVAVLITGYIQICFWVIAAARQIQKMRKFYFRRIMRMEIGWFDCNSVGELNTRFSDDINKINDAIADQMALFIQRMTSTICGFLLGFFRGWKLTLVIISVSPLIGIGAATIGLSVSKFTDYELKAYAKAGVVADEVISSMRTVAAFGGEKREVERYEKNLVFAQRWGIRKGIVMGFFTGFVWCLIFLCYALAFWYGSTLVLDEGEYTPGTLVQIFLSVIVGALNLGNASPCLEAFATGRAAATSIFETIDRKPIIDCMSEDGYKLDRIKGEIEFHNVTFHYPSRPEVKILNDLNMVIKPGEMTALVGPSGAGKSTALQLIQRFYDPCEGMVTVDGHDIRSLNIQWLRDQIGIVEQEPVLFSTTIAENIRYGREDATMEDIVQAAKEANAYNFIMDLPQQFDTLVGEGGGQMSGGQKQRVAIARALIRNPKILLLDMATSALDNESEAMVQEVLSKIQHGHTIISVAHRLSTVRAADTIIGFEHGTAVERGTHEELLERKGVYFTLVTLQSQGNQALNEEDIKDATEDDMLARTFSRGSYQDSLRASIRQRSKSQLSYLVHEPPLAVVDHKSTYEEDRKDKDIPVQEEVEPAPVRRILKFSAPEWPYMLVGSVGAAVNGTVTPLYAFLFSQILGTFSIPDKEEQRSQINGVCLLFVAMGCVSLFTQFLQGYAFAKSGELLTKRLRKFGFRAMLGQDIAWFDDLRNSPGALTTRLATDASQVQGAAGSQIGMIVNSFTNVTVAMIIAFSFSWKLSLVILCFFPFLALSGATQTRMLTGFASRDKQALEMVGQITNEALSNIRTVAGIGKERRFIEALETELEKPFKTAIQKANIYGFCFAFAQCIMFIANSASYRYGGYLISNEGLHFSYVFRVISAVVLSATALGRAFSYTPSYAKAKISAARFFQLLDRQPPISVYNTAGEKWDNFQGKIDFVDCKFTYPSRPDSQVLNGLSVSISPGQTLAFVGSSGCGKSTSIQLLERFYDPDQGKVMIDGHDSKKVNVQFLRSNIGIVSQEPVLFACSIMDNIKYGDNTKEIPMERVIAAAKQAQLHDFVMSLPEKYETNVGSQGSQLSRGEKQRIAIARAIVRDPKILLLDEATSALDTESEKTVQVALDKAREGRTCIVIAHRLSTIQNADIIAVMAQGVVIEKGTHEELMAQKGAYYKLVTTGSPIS

In the case of `C#CCC(O)(c1ccncc1)c1cc2ccccc2n1S(=O)(=O)c1ccccc1` (racemic) [FKK6, 1-(1-(phenylsulfonyl)-1H-indol-2-yl)-(1-pyridin-4-yl)-but-3-yn-1-ol], the “% of control activity at 10 μM” value (OATP1B1 [1]) is reported as 34%, the “% of control activity at 10 μM” value (OATP1B3 [2]) is reported as 36% and the remaining activity at 10 µM (BSEP) is reported as 44%.

Molecule `CO[C@H]1/C=C/O[C@@]2(C)Oc3c(C)c(O)c4c(O)c(c(/C=N/N5CCN(C)CC5)c(O)c4c3C2=O)NC(=O)/C(C)=C\C=C\[C@H](C)[C@H](O)[C@@H](C)[C@@H](O)[C@@H](C)[C@H](OC(C)=O)[C@@H]1C` [rifampicin] has an IC50 (OATP1B3 [3]) of 3.9 µM and an IC50 (OATP1B1 [4]) of 3.4 µM.

In the case of `C#CCC(O)(c1ccncc1)c1cc2ccccc2n1S(=O)(=O)c1ccc(O)cc1` (centres unmarked) [compound 9, 4-((2-(1-hydroxy-1-(pyridin-4-yl)but-3-yn-1-yl)-1H-indol-1-yl)sulfonyl)phenol], the EC50 (hPXR) is reported as 5.1 µM.

For `CN(C)C(=O)CCSC(SCCC(=O)O)c1cccc(/C=C/c2ccc3ccc(Cl)cc3n2)c1` (centres unmarked) [MK571], the IC50 (MRP2) was 22 µM.

`C#CCC(O)(c1cc[n+]([O-])cc1)c1cc2ccccc2n1S(=O)(=O)c1ccccc1` (centres unmarked) [compound 6, 4-(1-hydroxy-1-(1-(phenylsulfonyl)-1H-indol-2-yl)but-3-yn-1-yl)pyridine 1-oxide] gave an EC50 (hPXR) of 7.8 µM.
